Patent publication US20090209605A1, “NEMATICIDAL COMPOSITIONS” (Devgen N.V., priority 2004, published 2009)

Tests used:
Type in all cases: in vivo
[1] = test system: stubby root nematodes (Paratrichodorus), stunt nematodes (Tylenchorhynchus spp.), root lesion nematodes (Pratylenchus spp.) and root knot nematodes …; assay: Nematicide field trial on carrots: % deformed carrots
Procedure: Garden carrots were grown in the open field. The soil contained high levels of stubby root nematodes (Paratrichodorus), stunt nematodes (Tylenchorhynchus spp.), root lesion nematodes (Pratylenchus spp.) and root knot nematodes (Meloidogyne spp.).
(§1) An experimental pattern at Complete Randomized Blocks with four replicas was adopted. Besides the experimental products, each test also included an untreated control and a treatment with the standard commercial product VYDATE 10L (10%) applied in accordance to label instructions.
In carrots, nematodes cause deformation such as stunting, dwarfing, twisting, splitting and bearding. For these experiments, the total percentage of deformed carrots were considered, as these are not marketed for human consumption and are of no commercial interest.
Three different tests have been performed (Tables 9, 10 and 11), each containing an untreated and commercial reference control. All treatments were statistically different from untreated control.

[2] = test system: root-knot nematode (Meloidogyne spp); assay: Nematicide field trial on tomato: root galling and yield; settings: for Average root galling: 0-5 Lamberti scale
Procedure: Open field tomatoes (Lycopersicon esculentum, variety incas) were grown on sandy soil with a natural root-knot nematode (Meloidogyne spp) population. Soil samples, collected prior to planting, contained on average 113 J2 juveniles per 100 g soil. A program of 5 applications with intervals of about 14 days was started two days after transplantation.
as §1
The read-outs are the average yield of the marketable tomatoes per plant (Table 7). The level of nematode attack of the root system at the time of harvesting was assessed by means of the lamberti scoring.

[3] = test system: Meloidogyne incognita nematodes; assay: Pot Assay 1: Meloidogyne infection of potato, egg masses/galls on roots; settings: potato in pot, week 8 after inoculation
Procedure, shortened: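 Potato (cv. Bintje) grown in sand pots at 14–18 °C in greenhouse. Compound in DMSO spread on sand one day before inoculation with ~1500 M. incognita juveniles; concentration assumes full diffusion in pot. Root galls counted 8 weeks post-inoculation, plant development also scored; triplicates, aldicarb and DMSO/untreated controls.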

[4] = Product Rate 4 (footnote g ai/ha)
[5] = Product Rate 8 (footnote g ai/ha)

CCCCc1c(C)nc(NCC)nc1OS(=O)(=O)N(C)C [XLIII]
% total deformed ([1]; test of Table 9, Product Rate 500 g ai/ha): 35.53%
% total deformed ([1]; test of Table 9, Product Rate 1500 g ai/ha): 41.34%
% total deformed ([1]; test of Table 9, Product Rate 3000 g ai/ha): 41.02%
Average yield of marketable fruits [2, 4]: 1.28 kg/plant/pot
Average root galling [2, 4]: 1.1
Average yield of marketable fruits [2, 5]: 1.25 kg/plant/pot
Average root galling [2, 5]: 1.6
number of egg masses (galls) on roots, Replicate 3 ([3]; 0.5 μM): 30
number of egg masses (galls) on roots, Replicate 2 ([3]; 2 μM): 35
number of egg masses (galls) on roots, Replicate 3 ([3]; 2 μM): 25
number of egg masses (galls) on roots, Replicate 1 ([3]; 10 μM): 15
number of egg masses (galls) on roots, Replicate 2 ([3]; 10 μM): 5
number of egg masses (galls) on roots, Replicate 3 ([3]; 10 μM): 10
number of egg masses (galls) on roots, Replicate 1 ([3]; 50 μM): 0
number of egg masses (galls) on roots, Replicate 2 ([3]; 50 μM): 15
number of egg masses (galls) on roots, Replicate 3 ([3]; 50 μM): 5
